Test results from patent US20210030698A1, “GEL CONTAINING ZERUMBONE FROM BITTER GINGER (ZINGIBER ZERUMBET) FOR CURATIVE TREATMENT OF DIABETIC ULCERS” (INSTITUTO NACIONAL DE PESQUISAS DA AMAZÔNIA ? INPA, priority 2018, published 2021).

Tests used:
[1] = system: mice; assay: analgesic activity in chemical and thermal models of pain (acetic acid, formalin, capsaicin); type: in vivo
[2] = system: mice; assay: hot plate test pain model; type: in vivo; conditions: hot plate 49-54° C.
[3] = system: rat paw edema; assay: anti-inflammatory activity, carrageenan rat paw edema; type: in vivo; conditions: croton oil and arachidonic acid models
[4] = barbiturate sleep (sodium pentobarbital); type: in vivo; conditions: sodium pentobarbital (nembutal)
[5] = system: Artemia salina; assay: in vitro cytotoxicity test on Artemia salina
Description: In the in vitro cytotoxicity tests, zerumbone produced mortality for Artemia salina of CL50—45 ug/ml, showing a positive correlation between antitumor and anti-inflammatory activities.

C/C1=C\CC(C)(C)/C=C/C(=O)/C(C)=C/CC1 [zerumbone]
analgesic activity against pain models acetic acid, formalin and capsaicin ([1]; administered orally and intraperitoneally): significant, dose-dependent analgesic activity | analgesic effect in chemical and thermal models of pain ([1]; doses of 250 to 1000 mg/kg, mice): potent analgesic effect | latency of the animals in the hot plate test [2]: significantly increased | anti-inflammatory effect, inhibition of carrageenan inflammatory response in rat paw edema [3]: significant and dose-dependent anti-inflammatory effects | barbiturate sleep recovery time (T.R) [4]: approximately 600 minutes | CL50 mortality for Artemia salina [5]: 45 µg/mL
